Drawing on patent US11208412B2 (DAEGU-GYEONGBUK MEDICAL INNOVATION FOUNDATION, priority 2017, dated 2021), this text covers remaining binding for three compounds.

Assay in all cases: Kinase selectivity, DiscoverX scanMAX Kinase assay panel (% control)
Holding throughout (assay type): binding

Assay [1] addresses T1, kinases of the scanMAX Kinase assay panel (Homo sapiens, UniProt P08581).
T1 construct: purchased DiscoverX Co. (contract measurement) scanMAX Kinase assay panel
As to conditions: MET; 1 uM. In short, it runs like this: (§1)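 A 1 uM DMSO solution of compound was applied across the panel kinases, and results were expressed as % control relative to DMSO (100%) and a positive control (0%).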

Assay [2] has as its target T2, kinases of the scanMAX Kinase assay panel (Homo sapiens, UniProt P29322).
T2 construct: purchased DiscoverX Co. (contract measurement) scanMAX Kinase assay panel
T2 sequence (P29322 28-1005): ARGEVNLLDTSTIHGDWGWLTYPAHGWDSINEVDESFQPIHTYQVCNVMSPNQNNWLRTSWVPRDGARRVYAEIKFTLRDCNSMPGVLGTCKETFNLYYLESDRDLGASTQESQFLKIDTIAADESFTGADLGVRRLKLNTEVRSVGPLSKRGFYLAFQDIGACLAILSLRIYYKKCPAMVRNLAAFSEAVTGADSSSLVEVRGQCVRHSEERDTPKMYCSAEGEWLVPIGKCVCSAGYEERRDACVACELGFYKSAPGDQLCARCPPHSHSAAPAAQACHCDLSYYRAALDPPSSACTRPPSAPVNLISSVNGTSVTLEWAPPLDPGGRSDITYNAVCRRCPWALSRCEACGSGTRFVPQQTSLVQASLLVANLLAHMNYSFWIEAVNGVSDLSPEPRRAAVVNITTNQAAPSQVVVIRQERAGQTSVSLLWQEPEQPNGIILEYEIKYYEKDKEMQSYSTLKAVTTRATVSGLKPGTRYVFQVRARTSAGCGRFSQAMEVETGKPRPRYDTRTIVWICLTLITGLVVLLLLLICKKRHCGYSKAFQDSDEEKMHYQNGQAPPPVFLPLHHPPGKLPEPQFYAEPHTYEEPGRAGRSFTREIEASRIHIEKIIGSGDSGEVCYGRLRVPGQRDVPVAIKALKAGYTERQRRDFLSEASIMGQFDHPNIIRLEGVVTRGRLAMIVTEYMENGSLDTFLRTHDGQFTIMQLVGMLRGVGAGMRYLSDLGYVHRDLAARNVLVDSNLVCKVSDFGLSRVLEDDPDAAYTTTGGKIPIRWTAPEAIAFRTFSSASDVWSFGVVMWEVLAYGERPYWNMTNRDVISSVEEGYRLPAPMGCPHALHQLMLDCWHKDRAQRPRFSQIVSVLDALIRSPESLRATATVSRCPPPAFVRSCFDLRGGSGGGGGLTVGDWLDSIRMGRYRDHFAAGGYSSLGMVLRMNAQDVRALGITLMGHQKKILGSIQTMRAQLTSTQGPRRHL
As to conditions: EPHA8; 1 uM. In short, it runs like this:
as §1

The target in assay [3] is T3, kinases of the scanMAX Kinase assay panel (Homo sapiens, UniProt O95835).
T3 construct: purchased DiscoverX Co. (contract measurement) scanMAX Kinase assay panel
T3 sequence (O95835 1-1130): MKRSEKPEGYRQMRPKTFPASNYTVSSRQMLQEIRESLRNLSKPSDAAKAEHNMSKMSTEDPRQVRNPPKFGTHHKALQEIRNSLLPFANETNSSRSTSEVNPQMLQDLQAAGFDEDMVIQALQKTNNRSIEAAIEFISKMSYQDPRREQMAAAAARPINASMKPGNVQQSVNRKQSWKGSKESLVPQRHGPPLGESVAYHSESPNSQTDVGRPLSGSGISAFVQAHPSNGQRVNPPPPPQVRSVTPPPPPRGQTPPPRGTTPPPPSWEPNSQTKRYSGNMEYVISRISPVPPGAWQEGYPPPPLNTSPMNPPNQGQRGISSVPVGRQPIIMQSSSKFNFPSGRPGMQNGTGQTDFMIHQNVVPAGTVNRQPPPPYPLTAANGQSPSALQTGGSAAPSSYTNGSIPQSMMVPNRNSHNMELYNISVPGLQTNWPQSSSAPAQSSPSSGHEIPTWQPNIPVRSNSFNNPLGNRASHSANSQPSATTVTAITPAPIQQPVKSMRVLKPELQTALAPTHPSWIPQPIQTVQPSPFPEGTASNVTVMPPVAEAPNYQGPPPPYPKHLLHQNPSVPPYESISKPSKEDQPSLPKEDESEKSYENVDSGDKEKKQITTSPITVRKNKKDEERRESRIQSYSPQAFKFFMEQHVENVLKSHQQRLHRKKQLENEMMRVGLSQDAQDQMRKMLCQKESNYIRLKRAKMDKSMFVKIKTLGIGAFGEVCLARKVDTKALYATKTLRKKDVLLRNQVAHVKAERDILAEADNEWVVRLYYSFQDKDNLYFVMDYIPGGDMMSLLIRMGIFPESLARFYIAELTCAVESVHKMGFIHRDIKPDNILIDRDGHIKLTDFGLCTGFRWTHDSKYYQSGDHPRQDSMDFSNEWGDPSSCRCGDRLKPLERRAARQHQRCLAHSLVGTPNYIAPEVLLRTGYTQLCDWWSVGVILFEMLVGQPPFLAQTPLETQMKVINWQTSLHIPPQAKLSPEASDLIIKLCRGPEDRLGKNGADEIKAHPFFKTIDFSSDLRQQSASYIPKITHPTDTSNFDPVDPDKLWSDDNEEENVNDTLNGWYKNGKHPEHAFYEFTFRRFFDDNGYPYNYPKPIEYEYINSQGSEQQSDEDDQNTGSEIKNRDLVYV
To be noted: LATS1; 1 uM. In short, it runs like this: as §1

T1 sequence (P08581 25-1390): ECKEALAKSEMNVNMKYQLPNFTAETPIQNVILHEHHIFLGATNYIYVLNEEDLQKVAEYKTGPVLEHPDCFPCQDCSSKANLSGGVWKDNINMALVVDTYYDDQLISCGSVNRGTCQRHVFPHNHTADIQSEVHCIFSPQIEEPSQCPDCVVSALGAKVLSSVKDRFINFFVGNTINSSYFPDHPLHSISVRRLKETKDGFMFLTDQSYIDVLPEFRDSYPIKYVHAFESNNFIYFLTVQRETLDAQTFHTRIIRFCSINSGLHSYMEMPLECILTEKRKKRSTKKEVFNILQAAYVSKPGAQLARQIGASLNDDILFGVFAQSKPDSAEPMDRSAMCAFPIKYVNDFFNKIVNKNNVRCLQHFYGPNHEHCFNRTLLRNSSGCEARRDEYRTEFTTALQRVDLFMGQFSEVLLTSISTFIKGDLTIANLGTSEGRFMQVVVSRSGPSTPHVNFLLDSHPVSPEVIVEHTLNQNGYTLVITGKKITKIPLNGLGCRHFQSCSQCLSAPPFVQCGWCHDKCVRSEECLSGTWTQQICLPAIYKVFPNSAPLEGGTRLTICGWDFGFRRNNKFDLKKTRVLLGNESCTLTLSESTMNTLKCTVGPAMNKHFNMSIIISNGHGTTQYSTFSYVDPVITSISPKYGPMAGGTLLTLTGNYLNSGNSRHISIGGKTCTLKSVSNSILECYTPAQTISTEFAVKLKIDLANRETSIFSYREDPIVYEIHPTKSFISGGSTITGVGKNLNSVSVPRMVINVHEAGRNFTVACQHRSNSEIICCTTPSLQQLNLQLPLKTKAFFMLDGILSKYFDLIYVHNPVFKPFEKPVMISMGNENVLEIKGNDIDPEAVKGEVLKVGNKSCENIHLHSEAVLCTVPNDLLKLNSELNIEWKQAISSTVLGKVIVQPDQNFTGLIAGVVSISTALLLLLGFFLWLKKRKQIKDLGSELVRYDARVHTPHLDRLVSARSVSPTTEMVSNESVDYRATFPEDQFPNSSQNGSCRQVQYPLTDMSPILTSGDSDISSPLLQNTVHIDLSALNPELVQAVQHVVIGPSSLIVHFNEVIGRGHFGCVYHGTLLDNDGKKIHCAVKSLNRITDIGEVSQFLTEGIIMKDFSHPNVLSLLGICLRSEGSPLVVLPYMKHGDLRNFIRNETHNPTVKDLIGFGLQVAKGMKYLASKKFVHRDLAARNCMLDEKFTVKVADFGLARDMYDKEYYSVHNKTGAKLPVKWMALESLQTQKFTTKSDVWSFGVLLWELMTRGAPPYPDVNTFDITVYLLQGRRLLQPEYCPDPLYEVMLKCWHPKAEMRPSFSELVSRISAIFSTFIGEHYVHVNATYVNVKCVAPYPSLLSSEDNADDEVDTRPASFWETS

Regarding `CNc1nc(Nc2ccc(C(=O)N3CCOCC3)cc2OC)nc2[nH]cc(C#N)c12` [Example 1, 2-((2-methoxy-4-(morpholine-4-carbonyl)phenyl)amino)-4-(methylamino)-7H-pyrrolo[2,3-d]pyrimidine-5-carbonitrile], the remaining binding at 1 µM stood at 89% in assay [1], 97% in assay [2] and 100% in assay [3].
As for `CC1(Nc2nc(Nc3cnn([C@H]4CCN(C5COC5)C[C@@H]4F)c3Cl)nc3[nH]cc(C#N)c23)CC1` [Example 52, 2-((5-chloro-1-((3S,4S)-3-fluoro-1-(oxetane-3-yl)piperidine-4-yl)-1H-pyrazole-4-yl)amino)((1-methylcyclopropyl)amino)-7H-pyrrolo[2,3-d]pyrimidine-5-carbonitrile], the results for the remaining binding at 1 µM in assay [1], in assay [2] and in assay [3] were 21%, 86% and 35%, respectively.
For `CCNc1nc(Nc2ccc(C(=O)N3CCC(N4CCOCC4)CC3)cc2OC)nc2[nH]cc(C(F)(F)F)c12` [Example 104, (4-((4-(ethylamino)-5-(trifluoromethyl)-7H-pyrrolo[2,3-d]pyrimidine-2-yl)amino)-3-methoxyphenyl)(4-morpholinopiperidine-1-yl)methanone] the same measures were 100%, 93% and 100%.
